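In this assay, cells in 96-well plates receive the compound at five concentrations for 48 hours. Endpoints are linearly interpolated between the surrounding concentrations. Abbreviation: GI50, concentration required for 50% inhibition of growth.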 The source made the active and inactive calls. Rule as the data show it: active = GI50 up to about 1.1 µM and inactive = higher.
Tests used:
Experiment in all cases: growth of human tumour cells (NCI), 48 h
LOX IMVI = test system: LOX IMVI
MDA-N = test system: MDA-N
K562 = test system: K562
SK-OV-3 = test system: SK-OV-3
HL-60 = test system: HL-60
HT-29 = test system: HT-29
SNB-19 = test system: SNB-19
NCI-H460 = test system: NCI-H460
UACC-257 = test system: UACC-257
SF-295 = test system: SF-295
SNB-75 = test system: SNB-75
SR = test system: SR
Malme-3M = test system: Malme-3M
NCI-H23 = test system: NCI-H23
M14 = test system: M14
786-0 = test system: 786-0
SK-MEL-28 = test system: SK-MEL-28
MCF7 = test system: MCF7
SW-620 = test system: SW-620
CCRF-CEM = test system: CCRF-CEM

SMILES	GI50 (LOX IMVI)	GI50 (MDA-N)	GI50 (K562)	GI50 (SK-OV-3)	GI50 (HL-60)	GI50 (HT-29)	GI50 (SNB-19)	GI50 (NCI-H460)	GI50 (UACC-257)	GI50 (SF-295)	GI50 (SNB-75)	GI50 (SR)	GI50 (Malme-3M)	GI50 (NCI-H23)	GI50 (M14)	GI50 (786-0)	GI50 (SK-MEL-28)	GI50 (MCF7)	GI50 (SW-620)	GI50 (CCRF-CEM)
O=C(Nc1ccccc1)OCCN=c1c2ccccc2ccc2ccccc12	20.3 µM (inactive)	18.5 µM (inactive)	14.7 µM (inactive)	32.1 µM (inactive)	17 µM (inactive)	17.2 µM (inactive)	15.9 µM (inactive)	22.8 µM (inactive)	15.8 µM (inactive)	14 µM (inactive)	26 µM (inactive)	18.2 µM (inactive)	18.7 µM (inactive)	35.1 µM (inactive)	19.1 µM (inactive)	32.7 µM (inactive)	23.7 µM (inactive)	> 10 µM (inactive)	31.9 µM (inactive)	18.9 µM (inactive)
CCSc1s/c(=N/c2ccc(/N=c3\sc(C)c(SC)s3)cc2)sc1-c1ccc(C)cc1	> 100 µM (inactive)	> 100 µM (inactive)	> 100 µM (inactive)	> 100 µM (inactive)	> 100 µM (inactive)	> 100 µM (inactive)	> 100 µM (inactive)	> 100 µM (inactive)	> 100 µM (inactive)	> 100 µM (inactive)	32 µM (inactive)	> 100 µM (inactive)	> 100 µM (inactive)	> 100 µM (inactive)	> 100 µM (inactive)	> 100 µM (inactive)	> 100 µM (inactive)	> 100 µM (inactive)	> 100 µM (inactive)	> 100 µM (inactive)
C=CC1=C(C)c2cc3[nH]c(c4c5nc(cc6[nH]c(cc1n2)c(C)c6CC)C(C)=C5C(=O)[C@@H]4C(=O)OC)[C@@H](CCC(=O)O)[C@@H]3C	6.22 µM (inactive)	5.27 µM (inactive)	1.38 µM (inactive)	4.06 µM (inactive)	1.37 µM (inactive)	8.43 µM (inactive)	4.09 µM (inactive)	2.81 µM (inactive)	5.32 µM (inactive)	2.12 µM (inactive)	2.11 µM (inactive)	0.634 µM (active)	12.2 µM (inactive)	2.21 µM (inactive)	3.66 µM (inactive)	7.71 µM (inactive)	1.64 µM (inactive)	2.98 µM (inactive)	2.5 µM (inactive)	1.21 µM (inactive)
COC(=O)C1=C(OC(=O)/C(=C/c2ccc(Cl)cc2Cl)c2ccc(Cl)cc2Cl)C(C(=O)OC)[C@@]2(O)[C@@H](C(=O)OC)[C@H](C)C[C@@H]1[C@@H]2C(=O)OC (stereo not given in full)	> 100 µM (inactive)	> 100 µM (inactive)	> 100 µM (inactive)	> 100 µM (inactive)	> 100 µM (inactive)	> 100 µM (inactive)	> 100 µM (inactive)	> 100 µM (inactive)	> 100 µM (inactive)	16.5 µM (inactive)	> 100 µM (inactive)	> 100 µM (inactive)	> 100 µM (inactive)	> 100 µM (inactive)	> 100 µM (inactive)	> 100 µM (inactive)	> 100 µM (inactive)	> 100 µM (inactive)	> 100 µM (inactive)	88.5 µM (inactive)
CCOC(=O)c1cc(C#N)[nH]c1-c1ccsc1	36.2 µM (inactive)	33.9 µM (inactive)	25.6 µM (inactive)	43.8 µM (inactive)	16.4 µM (inactive)	28.8 µM (inactive)	56.1 µM (inactive)	32.2 µM (inactive)	36.2 µM (inactive)	38 µM (inactive)	22.5 µM (inactive)	11.8 µM (inactive)	37.4 µM (inactive)	35.5 µM (inactive)	41.7 µM (inactive)	44 µM (inactive)	40.2 µM (inactive)	14.3 µM (inactive)	31.3 µM (inactive)	21.5 µM (inactive)

— ChEMBL document CHEMBL1201862, “PubChem BioAssay data set” (2004)
